For assay [1], the system named is A. gambiae sensu lato. Nature of the assay: Feeding proportion experiments (90 s on membrane feeder). It counts as in vivo. As for the experimental part: Mosquitoes used in this study were from the laboratory colony of A. gambiae sensu lato (Keele line, University of Glasgow), which was produced by balanced interbreeding of four A. gambiae s.s. strains (H. Hurd, et al. Evolution, 59, 2560-2572 (2005)). Larvae were reared under standard insectary conditions (27±1° C., 70% humidity, 12 h light: 12 h dark cycle) and fed on TetraMin fish flakes (Tetra ltd., Germany). Pupae were transferred into holding cages for emergence. Emerged adults were fed ad libitum on 5% glucose solution, supplemented with 0.05% (w/v) 4-aminobenzoic acid (PABA, Sigma-Aldrich), through soaked filters on top of the 2 ml tubes and with soaked filter pads inside cages. Red blood cells (RBCs) were washed with Roswell Park Memorial Institute (RPMI) medium and stored in RPMI at 50% haematocrit at 4° C. until use. […]
Fifty mosquitoes were isolated in three separate cages (8 cm internal diameter×10 cm in height) covered with netting, and fed on 1 ml of control RBCs, hRBCs or giRBCs, respectively. […] For each group, the number of fully fed mosquitoes compared to unfed controls was immediately recorded. In another set of feeding experiments, serum or a 0.9% physiological saline solution (NaCl, pH 7.4), either with or without 10 μM HMBPP, were offered to mosquitoes during a 5 min feeding window, and the number of fed mosquitoes recorded every minute for each cage separately. […]

A further assay has as its system RBCs. As to the kind of experiment: Volatile collection (SPME) and GC-MS analysis of RBC headspace. In kind it is cell-based, Human. Conditions: 10 μM HMBPP, FIGS. 2C and D. On the procedure: RBCs (1 ml) were transferred to 4 ml glass vials closed with auto-sampler screw caps, and equilibrated in a thermostat at 38° C. for 15 min. Then, 2.5 μl of HMBPP or Nanopure water were added to the RBCs samples (final concentration: 10 μM HMBPP per sample). Volatiles were collected from the headspace using solid phase micro-extraction (SPME; Supelco, Bellmonte, Pa., USA) (M. J. Yang, el al., J. Chem. Educ., 74, 1130-1132 (1997) and A. K. Borg-Karlson and R. Mozuraitis, Naturforsch., C. 51, 599-602 (1996)). […] Electron ionisation mass spectra were determined at 70 eV with the ion source kept at 230° C. and mass spectra were obtained at mass to charge ratio (m/z) 29-400. […] A similar protocol was used for the quantification of CO2, with the mass spectral data and GC retention times being compared with emission from frozen CO2. The relative amounts of CO2 in arbitrary units were determined from the areas of the respective chromatogram peaks using single ion display mode at m/z 44±0.5 Da. The amounts of identified compounds were quantified by the use of extracted ion chromatograms, since they are very minute. […] The estimations were based on the very same quantifications given in ‘arbitrary area units’. […]

For another assay, the system named is A. gambiae s.l. The note with it: in vivo; cited from earlier work.
For a further assay, the system named is human Vγ9Vδ2 T-cells. Conditions: cited from earlier work.
For assay [2], the system named is A. gambiae sensu lato. Nature of the assay: Dual choice attraction bioassay (Y-tube olfactometer). In kind it is in vivo. Conditions: FIG. 1A. On the procedure: Mosquitoes used in this study were from the laboratory colony of A. gambiae sensu lato (Keele line, University of Glasgow), which was produced by balanced interbreeding of four A. gambiae s.s. strains (H. Hurd, et al. Evolution, 59, 2560-2572 (2005)). Larvae were reared under standard insectary conditions (27±1° C., 70% humidity, 12 h light: 12 h dark cycle) and fed on TetraMin fish flakes (Tetra ltd., Germany). Pupae were transferred into holding cages for emergence. Emerged adults were fed ad libitum on 5% glucose solution, supplemented with 0.05% (w/v) 4-aminobenzoic acid (PABA, Sigma-Aldrich), through soaked filters on top of the 2 ml tubes and with soaked filter pads inside cages. Red blood cells (RBCs) were washed with Roswell Park Memorial Institute (RPMI) medium and stored in RPMI at 50% haematocrit at 4° C. until use. To measure the effect of HMBPP on mosquito fitness, RBCs stored in RPMI were centrifuged at 2500×g for 5 min followed by replacement of the medium with AB serum for a final haematocrit of 40%. HMBPP (stock concentration at 4 mM in Nanopure water, stored at −80° C.) was diluted to 10 μM in 1 ml RBC suspension, and the corresponding volume of Nanopure water was added to the control RBCs. All experiments were, unless otherwise stated, conducted on 5-7 days post-emergence female mosquitoes maintained in separated cages (approximately 210 individuals per cohort) and fed RBCs either with or without HMBPP for 30 min. All experiments were performed in triplicates.
Initial experiments were performed using a Y-tube olfactometer (length of the central cylinder and two arms: 25/15/15 cm respectively, inner diameter: 5 cm; see FIG. 1a). For each experiment, 180 female mosquitoes were individually placed in a release chamber and flown one by one. Females flew towards the upwind end (airflow 3 L min^−1) and entered one of two trapping chambers through which odour released from nearby membrane feeders passed (5 cm distance to each trapping chamber). Three experiments were conducted. In the first experiment, the membrane feeders were loaded with RBCs with or without HMBPP, while in the second they were loaded with serum with or without HMBPP. The third experiment was performed with a 5% glucose with 0.05% PABA solution with or without HMBPP. To control for possible spatial effects, the location of treatment at each olfactometer arm was switched every 30 minutes (˜15 mosquitoes flied one by one in each 30 minutes). Each replacement (feeder rotation with fresh RBCs) was counted as an experimental replicate (experimental block). Mosquitoes reaching any of the trapping chambers were considered to have made a choice. Each experiment was repeated six times with in total 180 mosquitoes per treatment.

For `C/C(=C\COP(=O)(O)OP(=O)(O)O)CO` [HMBPP, (E)-4-hydroxy-3-methyl-but-2-enyl pyrophosphate], in the assay on A. gambiae sensu lato [1] (RBCs supplemented with different concentrations of HMBPP, below 10 μM), the “proportion of mosquitoes feeding over a range of HMBPP concentrations” value is “substantially lower doses are sufficient to trigger enhanced mosquito feeding”. Further, the “proportion of females fed” value in the assay on A. gambiae sensu lato [1] (hRBCs (10 μM HMBPP) vs RBCs, 90 s feeding, FIG. 1B) was “more than doubled”. Further, in the assay on RBCs, the “increase in aldehydes (C8-C10:al) in headspace of hRBCs compared to RBCs” value is listed as 1.7-to-5.2 fold; the “increase in monoterpenes (α- and ß-pinene, limonene) in headspace of hRBCs compared to RBCs” value is 1.2-to-1.6 fold. For the same molecule, the “innate immune responses in A. gambiae s.l.” value in the assay on A. gambiae s.l. was “trigger innate immune responses”. For the same molecule, the “activation of human Vγ9Vδ2 T-cells” value in the assay with human Vγ9Vδ2 T-cells was “highly potent activator”. Also, in the assay with A. gambiae sensu lato [2] (RBCs with 10 μM HMBPP vs RBCs), the “host-seeking mosquitoes that chose HMBPP-supplemented RBCs (hRBCs) over RBCs” value worked out at 95%. The “attraction to HMBPP-supplemented glucose solution” value in the assay with A. gambiae sensu lato [2] (glucose solution (5%) containing PABA 0.05%, with vs without HMBPP) is “did not, however, increase attraction”. Further, in the assay with A. gambiae sensu lato [2] (serum with vs without HMBPP), the “attraction to HMBPP-supplemented serum” value is recorded as “did not, however, increase attraction”.

The record behind these values is patent publication US11638424B2, “Mosquito attractant formulations and uses thereof” (priority 2017, dated 2023).
